Peptide text beside a SMILES is read from it.
Assays:
Assay type in all cases: biochemical
[1] = target: T1, HDAC2 (Homo sapiens, UniProt Q92769); assay: HDAC2 inhibition, full IC50 measurement (Reaction Biology; fluorogenic p53 peptide RHKK(Ac)AMC)
T1 construct: purchased Reaction Biology Corporation (assay run by the CRO)
How it was run: (§1)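 Deacetylation of 50 μM RHKK(Ac)AMC is measured after 1 h at 30 °C in pH 8.0 Tris buffer (1% DMSO, 1 mg/ml BSA). Developer ends the reaction; the post-plateau 360/460 nm signal is fitted to IC50, averaging replicate measurements.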

[2] = target: T2, HDAC8 (Homo sapiens, UniProt Q9BY41); assay: HDAC8 inhibition, full IC50 measurement (Reaction Biology; fluorogenic p53 peptide RHKK(Ac)AMC); conditions: t1/t2 replicates
T2 construct: purchased Reaction Biology Corporation (assay run by the CRO)
T2 sequence (Q9BY41 1-377): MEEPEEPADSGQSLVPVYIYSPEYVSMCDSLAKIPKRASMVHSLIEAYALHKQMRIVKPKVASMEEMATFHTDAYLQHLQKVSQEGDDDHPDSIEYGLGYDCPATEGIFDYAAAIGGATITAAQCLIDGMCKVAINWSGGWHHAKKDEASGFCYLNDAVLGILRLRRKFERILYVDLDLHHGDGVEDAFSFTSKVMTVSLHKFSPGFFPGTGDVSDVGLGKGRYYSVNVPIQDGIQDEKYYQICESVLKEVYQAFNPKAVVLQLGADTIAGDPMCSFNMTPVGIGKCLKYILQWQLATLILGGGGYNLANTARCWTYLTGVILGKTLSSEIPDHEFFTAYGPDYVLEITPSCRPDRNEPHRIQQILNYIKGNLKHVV
How it was run: as §1

[3] = target: T3, HDAC1 (Homo sapiens, UniProt Q13547); assay: HDAC1 inhibition, full IC50 measurement (Reaction Biology; fluorogenic p53 peptide RHKK(Ac)AMC); conditions: t1/t2 replicates
T3 construct: purchased Reaction Biology Corporation (assay run by the CRO)
T3 sequence (Q13547 whole entry): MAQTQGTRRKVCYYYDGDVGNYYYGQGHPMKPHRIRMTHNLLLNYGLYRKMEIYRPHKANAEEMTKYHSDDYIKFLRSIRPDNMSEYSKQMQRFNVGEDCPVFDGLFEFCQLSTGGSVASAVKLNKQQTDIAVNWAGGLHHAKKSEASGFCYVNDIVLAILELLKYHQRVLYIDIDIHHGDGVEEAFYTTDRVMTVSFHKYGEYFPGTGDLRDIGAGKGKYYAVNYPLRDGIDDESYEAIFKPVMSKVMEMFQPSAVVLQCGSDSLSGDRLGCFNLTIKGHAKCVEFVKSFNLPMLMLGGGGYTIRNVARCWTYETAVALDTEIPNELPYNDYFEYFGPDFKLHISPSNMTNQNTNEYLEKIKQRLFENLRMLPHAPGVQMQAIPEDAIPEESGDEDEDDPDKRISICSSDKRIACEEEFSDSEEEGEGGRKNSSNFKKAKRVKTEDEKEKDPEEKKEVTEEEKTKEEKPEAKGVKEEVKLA
How it was run: as §1

[4] = peptide conc. 1.00E-05 M, listed as des3.1.0_t1
[5] = peptide conc. 1.00E-05 M, listed as des3.1.0_t2
[6] = peptide conc. 1.11E-06 M, listed as des3.1.0_t1
[7] = peptide conc. 1.11E-06 M, listed as des3.1.0_t2
[8] = peptide conc. 1.23E-07 M, listed as des3.1.0_t1
[9] = peptide conc. 1.23E-07 M, listed as des3.1.0_t2
[10] = peptide conc. 1.37E-08 M, listed as des3.1.0_t1
[11] = peptide conc. 1.37E-08 M, listed as des3.1.0_t2
[12] = peptide conc. 1.52E-09 M, listed as des3.1.0_t1
[13] = peptide conc. 1.52E-09 M, listed as des3.1.0_t2
[14] = peptide conc. 3.33E-06 M, listed as des3.1.0_t1
[15] = peptide conc. 3.33E-06 M, listed as des3.1.0_t2
[16] = peptide conc. 3.70E-07 M, listed as des3.1.0_t1
[17] = peptide conc. 3.70E-07 M, listed as des3.1.0_t2
[18] = peptide conc. 4.12E-08 M, listed as des3.1.0_t1
[19] = peptide conc. 4.12E-08 M, listed as des3.1.0_t2
[20] = peptide conc. 4.57E-09 M, listed as des3.1.0_t1
[21] = peptide conc. 4.57E-09 M, listed as des3.1.0_t2
[22] = peptide conc. 5.08E-10 M, listed as des3.1.0_t1
[23] = peptide conc. 5.08E-10 M, listed as des3.1.0_t2

T1 sequence (Q92769 whole entry): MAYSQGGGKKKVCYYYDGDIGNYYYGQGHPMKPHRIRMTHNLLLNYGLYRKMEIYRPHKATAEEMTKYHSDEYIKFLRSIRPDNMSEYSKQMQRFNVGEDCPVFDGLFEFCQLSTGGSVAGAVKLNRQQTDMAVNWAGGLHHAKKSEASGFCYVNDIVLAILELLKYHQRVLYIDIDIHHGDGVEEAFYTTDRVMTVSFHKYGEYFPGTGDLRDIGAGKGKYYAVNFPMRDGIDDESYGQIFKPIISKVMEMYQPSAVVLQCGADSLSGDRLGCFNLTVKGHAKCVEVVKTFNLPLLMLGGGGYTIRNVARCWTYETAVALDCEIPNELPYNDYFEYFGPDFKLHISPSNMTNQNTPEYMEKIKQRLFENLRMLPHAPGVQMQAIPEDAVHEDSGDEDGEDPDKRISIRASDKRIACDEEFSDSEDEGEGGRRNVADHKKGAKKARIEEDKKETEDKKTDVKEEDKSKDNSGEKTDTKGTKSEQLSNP

N=C(N)NCCC[C@H]1NC(=O)[C@@H]2CCCN2C(=O)[C@H](CO)NC(=O)[C@@H](Cc2c[nH]cn2)NC(=O)[C@H](CCCCCS)NC(=O)[C@H](CCCCN)NC(=O)[C@H](Cc2ccc(O)cc2)NC(=O)[C@H]2CCCN2C(=O)[C@@H](CCC(N)=O)NC1=O [des3.1.0, SHA-dHis-Ser-Pro-dArg-dGln-dPro-Tyr-Lys] (HELM PEPTIDE1{K.[O=C([C@H](CCCCCS)N[*:1])[*:2]].[dH].S.P.[dR].[dQ].[dP].Y}$PEPTIDE1,PEPTIDE1,1:R1-9:R2$$$V2.0)
HDAC2 activity raw data (signal) ([1]; Conc. 1.00E-05 M, t1): 59408
HDAC2 activity raw data (signal) ([1]; Conc. 1.00E-05 M, t2): 72667
HDAC2 activity raw data (signal) ([1]; Conc. 1.11E-06 M, t1): 433904
HDAC2 activity raw data (signal) ([1]; Conc. 1.11E-06 M, t2): 343376
HDAC2 activity raw data (signal) ([1]; Conc. 1.23E-07 M, t1): 657996
HDAC2 activity raw data (signal) ([1]; Conc. 1.23E-07 M, t2): 873444
HDAC2 activity raw data (signal) ([1]; Conc. 1.37E-08 M, t1): 729280
HDAC2 activity raw data (signal) ([1]; Conc. 1.37E-08 M, t2): 826208
HDAC2 activity raw data (signal) ([1]; Conc. 1.52E-09 M, t1): 589537
HDAC2 activity raw data (signal) ([1]; Conc. 1.52E-09 M, t2): 821627
HDAC2 activity raw data (signal) ([1]; Conc. 3.33E-06 M, t1): 217345
HDAC2 activity raw data (signal) ([1]; Conc. 3.33E-06 M, t2): 176595
HDAC2 activity raw data (signal) ([1]; Conc. 3.70E-07 M, t1): 565181
HDAC2 activity raw data (signal) ([1]; Conc. 3.70E-07 M, t2): 599514
HDAC2 activity raw data (signal) ([1]; Conc. 4.12E-08 M, t1): 715436
HDAC2 activity raw data (signal) ([1]; Conc. 4.12E-08 M, t2): 918076
HDAC2 activity raw data (signal) ([1]; Conc. 4.57E-09 M, t1): 697486
HDAC2 activity raw data (signal) ([1]; Conc. 4.57E-09 M, t2): 737052
HDAC2 activity raw data (signal) ([1]; Conc. 5.08E-10 M, t1): 616136
HDAC2 activity raw data (signal) ([1]; Conc. 5.08E-10 M, t2): 674996
HDAC8 activity raw data (signal) [2, 4]: 177071
HDAC8 activity raw data (signal) [2, 5]: 217357
HDAC8 activity raw data (signal) [2, 6]: 702584
HDAC8 activity raw data (signal) [2, 7]: 678372
HDAC8 activity raw data (signal) [2, 8]: 829409
HDAC8 activity raw data (signal) [2, 9]: 942877
HDAC8 activity raw data (signal) [2, 10]: 914161
HDAC8 activity raw data (signal) [2, 11]: 1065224
HDAC8 activity raw data (signal) [2, 12]: 932207
HDAC8 activity raw data (signal) [2, 13]: 1002240
HDAC8 activity raw data (signal) [2, 14]: 396779
HDAC8 activity raw data (signal) [2, 15]: 364112
HDAC8 activity raw data (signal) [2, 16]: 821171
HDAC8 activity raw data (signal) [2, 17]: 831364
HDAC8 activity raw data (signal) [2, 18]: 888545
HDAC8 activity raw data (signal) [2, 19]: 997244
HDAC8 activity raw data (signal) [2, 20]: 750196
HDAC8 activity raw data (signal) [2, 21]: 946901
HDAC8 activity raw data (signal) [2, 22]: 807432
HDAC8 activity raw data (signal) [2, 23]: 990498
HDAC1 activity raw data (signal) [3, 4]: 22305
HDAC1 activity raw data (signal) [3, 5]: 40732
HDAC1 activity raw data (signal) [3, 6]: 248828
HDAC1 activity raw data (signal) [3, 7]: 188355
HDAC1 activity raw data (signal) [3, 8]: 589648
HDAC1 activity raw data (signal) [3, 9]: 563314
HDAC1 activity raw data (signal) [3, 10]: 723592
HDAC1 activity raw data (signal) [3, 11]: 777320
HDAC1 activity raw data (signal) [3, 12]: 783325
HDAC1 activity raw data (signal) [3, 13]: 856547
HDAC1 activity raw data (signal) [3, 14]: 76346
HDAC1 activity raw data (signal) [3, 15]: 86885
HDAC1 activity raw data (signal) [3, 16]: 352482
HDAC1 activity raw data (signal) [3, 17]: 387684
HDAC1 activity raw data (signal) [3, 18]: 725312
HDAC1 activity raw data (signal) [3, 19]: 693516
HDAC1 activity raw data (signal) [3, 20]: 787632
HDAC1 activity raw data (signal) [3, 21]: 874002
HDAC1 activity raw data (signal) [3, 22]: 778120
HDAC1 activity raw data (signal) [3, 23]: 831348
